Source: patent US8268849B2, “Multifunctional Antioxidants and methods of use thereof” (priority 2007, dated 2012)
Entries after “also recorded” stand apart in the source; their conditions may differ.

Experiments:
[1] = Gino et al. (2001); cited from earlier work
[2] = Gino et al. (2001); cited from earlier work; remark: listed apart in the source
[3] = tested on: diabetic cataract formation; assay: Cataract formation in diabetic rats; type: in vivo; settings: streptozotocin diabetic rats
Experimental: Diabetes was induced in 100 g Sprague Dawley rats with streptozotocin injection (75 mg/kg) and all rats with blood sugar levels >300 mg/dL were divided into 4 groups of 8 rats each. One group received only standard rat chow (untreated diabetic) while each of the other groups received chow containing either 0.0125% ARI Al1576, 0.025% JHX-4 or 0.025% JHX-8. Lens changes were monitored by at 3-5 day intervals by slit lamp following tropicamide mydriasis. As summarized in FIGS. 8A-8C, vacuole formation began by 14 days in the untreated diabetic group with cortical opacities observed by 29 days and mature cataracts by 44 days. […] In the two antioxidant treated groups, vacuole formation was delayed by 19 and 11 days by JHX-4 and JHX-8, respectively, and cortical cataracts by 9 and 3 days, respectively. At the end of the study (47 days) all rats were equally diabetic with HbA1C levels >11.9%. All eyes were enucleated and lens sorbitol levels were measured as previously described (Kador et al. (2007) J. Ocul. Pharmacol. Ther., 23:116-23). […] Tissue levels of JHX-4 and -8 in the lens, neural retina and brain were determined after 47 days of feeding as described above (FIG. 10). […] Overall drug levels in both the lens and retina were ca. 3-fold higher in the diabetic rats with brain levels also now present. This increase may be due to either an accumulation of drug, or increased permeability of tissues and the BBB to drug in streptozotocin diabetic rats (Mooradian et al. (2005) Diabetes, 54:2977-82).

[4] = Chelation study by ESI-MS, Cu^2+ solution; type: binding; settings: 10:1 metal:compound, 45 minutes of mixing
Experimental: (§1) The relative amount of ions bound by JHX-1-JHX-8 was determined by electrospray ionization mass spectrometry (ESI-MS) according to the method of Baron and Hering (Baron and Hering (1998) Spectrometry J. Environ. Qual., 27:844-850). In this method solutions containing Fe^2+, Fe^3+, Cu^1+, Cu^2+, Zn^2+, Ca^2+, Mg^2+ were mixed with compound in ratios of 10:1, 1:1, and 1:10. After 45 minutes of mixing, each solution was directly infused into the MS with constant ionization energy and the relative decreases of the parent peaks in these solutions were determined. […] FIG. 3 illustrates ion binding with increased Fe^+2 concentrations results in decreased compound parent peak heights by ESI-MS when compounds contain appropriate functional groups for metal ion chelation.

[5] = Chelation study by ESI-MS, Zn^2+ solution; type: binding; settings: 10:1 metal:compound, 45 minutes of mixing
Experimental: as §1

[6] = Chelation study by ESI-MS, Fe^2+ solution; type: binding; settings: 10:1 metal:compound, 45 minutes of mixing
Experimental: as §1

[7] = Chelation study by ESI-MS, Mg^2+ solution; type: binding; settings: 10:1 metal:compound, 45 minutes of mixing
Experimental: as §1

[8] = Chelation study by ESI-MS, Ca^2+ solution; type: binding; settings: 10:1 metal:compound, 45 minutes of mixing
Experimental: as §1

[9] = Chelation study by ESI-MS, Cu^1+ solution; type: binding; settings: 10:1 metal:compound, 45 minutes of mixing
Experimental: as §1

[10] = Chelation study by ESI-MS, Fe^3+ solution; type: binding; settings: 10:1 metal:compound, 45 minutes of mixing
Experimental: as §1

[11] = tested on: SRA-1 human lens epithelial cells; assay: ROS staining (H2DCF-DA) in lens epithelial cells; type: cell-based; settings: 24 hour incubation, H2DCF-DA stain; for ROS staining, ROS initiated by homocysteine: 10 mM homocysteine (ER stress); for ROS staining, ROS generated by Fenton reaction: 0.1 mM Fe^2+ and 0.1 mM hydrogen peroxide
Experimental: The SRA-1 human lens epithelium cell line (Ibaraki et al. (1998) Exp. Eye Res., 67:577-85) was used to evaluate the antioxidant activity of JHX-1-8. These cells were cultured in DMEM media containing 10% fetal bovine serum (FBS), glutamine, NaHCO3, penicillin, and streptomycin at 37° C. in humidified atmosphere of 5% CO2 and 95% air until subconfluent (2-4 days). The cells were passaged when 80-90% confluent by treatment with trypsin-EDTA. The cells were plated at a density of 1×10^4 cells onto 96-well plates or 1×10^6 cells onto 100-mm dishes. ROS levels/effects in cells treated with JHX-1-8 were compared to similar cells treated with the water soluble Vitamin E derivative, Trolox (antioxidant control) or no drug (control).
The compounds were initially screened for antioxidant activity in 24 hour cultured SRA-1 human lens epithelial cells. Reactive oxygen species (ROS) in these cells were generated through both the Fenton reaction in which 0.1 mM Fe^2+ and 0.1 mM hydrogen peroxide were added to the culture media, or by culturing the lens with 10 mM homocysteine which induces endoplasmic reticular (ER) stress that results in the unfolded protein response (UPR) that subsequently generates the ROS. ROS were visualized with 2′,7′-dichlorodihydrofluorescein diacetate (DCF) staining. More specifically, after 24 hours of incubation, all cells were washed 2× with PBS and then incubated at room temperature for 1 hour with 10 μM H2DCF-DA (Invitrogen) stain. Fluorescent ROS staining was analyzed by quantifying pixel intensities of images obtained by fluorescent microscopy. As illustrated below in FIGS. 4A and 4B, compounds with chelating groups only produced a dose-dependent reduction in Fenton Reaction generated ROS. […] Indeed, homocysteine activates ER stress which subsequently initiates ROS through an Unfolded Protein Response (UPR).

[12] = tested on: SRA-1 human lens epithelium cell line; assay: MTS cell viability assay; type: cell-based; settings: 1 mM compound; for protection against H2O2 induced loss of cell viability: 1.0 mM H2O2, 2 hours
Experimental: The SRA-1 human lens epithelium cell line (Ibaraki et al. (1998) Exp. Eye Res., 67:577-85) was used to evaluate the antioxidant activity of JHX-1-8. […] The cells were passaged when 80-90% confluent by treatment with trypsin-EDTA. The cells were plated at a density of 1×10^4 cells onto 96-well plates or 1×10^6 cells onto 100-mm dishes. ROS levels/effects in cells treated with JHX-1-8 were compared to similar cells treated with the water soluble Vitamin E derivative, Trolox (antioxidant control) or no drug (control). […] Cells were cultured in 96-well plates and exposed for 2 hours to media containing 1.0 mM H2O2 (FIG. 5A) or Fenton reagents (1.0 mM H2O2 and 1.0 mM Fe^2+, FIG. 5B) with/without 1 mM JHX-1-8 or Trolox. Viability was measured as the absorbance of MTS stain at 490 nm 1 hour after the addition of 20 μL of […] AQueous One Solution Cell Proliferation Assay to each well. The results were normalized to blank control (100%) since absorbance is directly proportional to the living cell population.

[13] = Chelation studies by ESI-MS, overall statement on ion binding; settings: binding order Cu^1+=Cu^2+>Fe^2+=Fe^3+>Zn^2+; no binding with Ca^2+ or Mg^2+
Experimental: as §1

| SMILES | reactivity to peroxy radicals compared to α-tocopherol [1] | reactivity toward alkyl radicals compared to α-tocopherol [2] [fold] | lens changes by slit lamp ([3]; 0.0125% in chow, 47 days) | lens sorbitol levels ([3]; end of study (47 days)) | % Parent Peak Remaining at 10:1 Solution of Metal:Compound [4] [%] | % Parent Peak Remaining at 10:1 Solution of Metal:Compound [5] [%] | % Parent Peak Remaining at 10:1 Solution of Metal:Compound [6] [%] | % Parent Peak Remaining at 10:1 Solution of Metal:Compound [7] [%] | % Parent Peak Remaining at 10:1 Solution of Metal:Compound [8] [%] | % Parent Peak Remaining at 10:1 Solution of Metal:Compound [9] [%] | % Parent Peak Remaining at 10:1 Solution of Metal:Compound [10] [%] | ROS staining, ROS initiated by homocysteine [11] | protection against H2O2 induced loss of cell viability [12] | ion binding [13] | ROS staining, ROS generated by Fenton reaction [11] | increase of HLEC viability compared to controls ([12]; Fenton reagents (1.0 mM H2O2 and 1.0 mM Fe^2+), 2 hours) [%] |
| --- | --- | --- | --- | --- | --- | --- | --- | --- | --- | --- | --- | --- | --- | --- | --- | --- |
| Cc1nc(N(C)C)nc(C)c1O [2-N,N-Dimethyl-4,6-dimethyl-5-hydroxypyrimidine] | essentially equally reactive | 5 | – | – | – | – | – | – | – | – | – | – | – | – | – | – |
| O=C1NC(=O)C2(N1)c1cc(F)ccc1-c1ccc(F)cc12 [AL1576, reference compound] | – | – | No lens changes were observed | No sorbitol was present | – | – | – | – | – | – | – | – | – | – | – | – |
| CN(C)S(=O)(=O)N1CCN(c2ncccn2)CC1 [JHX-1, 1-N,N′-dimethylsulfamoyl-4-(2-pyrimidyl)piperazine] | – | – | – | – | 100.0 | 100.0 | 100.0 | 100.0 | 100.0 | 100.0 | 100.0 | – | – | – | – | – |
| CN(C)S(=O)(=O)N1CCN(c2ncc(O)cn2)CC1 [JHX-2, 1-N,N′-dimethylsulfamoyl-4-(5-hydroxy-2-pyrimidyl)piperazine] | – | – | – | – | 100.0 | 100.0 | 100.0 | 100.0 | 100.0 | 100.0 | 100.0 | reduced ROS staining similar to that with Trolox | protecting against H2O2 induced loss of cell viability | – | – | – |
| CN(C)S(=O)(=O)N1C(=O)CN(c2ncccn2)CC1=O [JHX-3, 1-N,N′-dimethylsulfamoyl-4-(2-pyrimidyl)piperazine-2,6-dione] | – | – | – | – | 4.4 | 15.3 | 8.1 | 100.0 | 100.0 | 3.6 | 10.0 | – | – | bind ions | decreased staining; also recorded: protected against ROS | – |
| COc1cc(OC)nc(N2CCN(S(=O)(=O)N(C)C)CC2)n1 [JHX-5, 1-N,N′-dimethylsulfamoyl-4-(4,6-dimethoxy-2-pyrimidyl)piperazine] | – | – | – | – | 100.0 | 100.0 | 100.0 | 100.0 | 100.0 | 100.0 | 100.0 | – | – | – | – | – |
| COc1nc(N2CCN(S(=O)(=O)N(C)C)CC2)nc(OC)c1O [JHX-6, 1-N,N′-dimethylsulfamoyl-4-(4,6-dimethoxy-5-hydroxy-2-pyrimidyl)piperazine] | – | – | – | – | 100.0 | 100.0 | 100.0 | 100.0 | 100.0 | 100.0 | 100.0 | reduced ROS staining similar to that with Trolox | protecting against H2O2 induced loss of cell viability | – | – | – |
| COc1cc(OC)nc(N2CC(=O)N(S(=O)(=O)N(C)C)C(=O)C2)n1 [JHX-7, 1-N,N′-dimethylsulfamoyl-4-(4,6-dimethoxy-2-pyrimidyl)piperazine-2,6-dione] | – | – | – | – | 3.4 | 13.8 | 7.3 | 100.0 | 100.0 | 4.1 | 7.6 | – | – | bind ions | decreased staining; also recorded: protected against ROS | – |
| Cc1c(C)c2c(c(C)c1O)CCC(C)(C(=O)O)O2 (stereo not shown) [Trolox, reference compound] | – | – | – | – | – | – | – | – | – | – | – | – | – | – | – | 15 |
